Data: paper PMC9791658 (Journal of Medicinal Chemistry, 2022)

Legend:
[1] = molecular target: 14-3-3ζ/GR_pT524 (Homo sapiens, UniProt P04150+P63104); assay: Fluorescence polarization; type: binding; conditions: for 14-3-3/GR PPI stabilization activity (in words): FP assay
[2] = tested on: Caco-2 cells; assay: Permeability across Caco-2 cell monolayers; type: in vitro ADME; conditions: for permeability classification: Caco-2; for increase of permeability vs 1: Caco-2 Papp(A to B) relative to compound 1
[3] = molecular target: 14-3-3ζ/ERα_pT594 (Homo sapiens, UniProt P03372+P63104); assay: Fluorescence polarization; type: binding; conditions: FP assay
[4] = molecular target: T1, 14-3-3ζ/GR_pT524 (Homo sapiens, UniProt P63104); assay: SPR assay of GR_pT524 with 14-3-3ζ in the absence and presence of FC-A; type: binding; conditions: FC-A 1 mM
T1 sequence (P63104 1-245): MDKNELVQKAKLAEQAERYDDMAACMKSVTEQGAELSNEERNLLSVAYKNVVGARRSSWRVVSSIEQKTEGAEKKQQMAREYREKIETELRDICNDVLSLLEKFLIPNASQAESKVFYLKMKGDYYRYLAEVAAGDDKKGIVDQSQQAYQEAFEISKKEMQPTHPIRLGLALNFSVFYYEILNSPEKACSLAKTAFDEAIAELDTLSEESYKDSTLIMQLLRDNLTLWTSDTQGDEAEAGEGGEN

| Compound | 14-3-3/GR PPI stabilization activity (in words) [1] | 14-3-3/ERα PPI stabilization activity (in words) [3] | further results |
| --- | --- | --- | --- |
| O=C(C1=C(O)C(=O)N(c2ccccc2O)C1c1ccc([N+](=O)[O-])cc1)c1ccccc1 (centres unmarked) [Compound 23, 4-Benzoyl-3-hydroxy-1-(2-hydroxyphenyl)-5-(4-nitrophenyl)-1,5-dihydro-2H-pyrrol-2-one] | only marginal activity | – | permeability classification [2]: medium permeability; increase of permeability vs 1 [2]: 5 fold |
| O=C(O)c1cc(N2C(=O)C(O)=C(c3ccccc3)C2c2ccc([N+](=O)[O-])cc2)ccc1O (single isomer, unassigned; (-)) [(−)-28, 2-Hydroxy-5-(3-hydroxy-5-(4-nitrophenyl)-2-oxo-4-phenyl-2,5-dihydro-1H-pyrrol-1-yl) benzoic Acid] | – | no 14-3-3/ERα PPI stabilization activity | – |
| O=C(C1=C(O)C(=O)N(c2ccc(O)c(C(=O)O)c2)[C@H]1c1ccc([N+](=O)[O-])cc1)c1ccccc1 [(S)-1, 5-(3-Benzoyl-4-hydroxy-2-(4-nitrophenyl)-5-oxo-2,5-dihydro-1H-pyrrol-1-yl)-2-hydroxybenzoic Acid] | – | completely inactive | – |
| O=C(C1=C(O)C(=O)N(c2ccc(O)c(C(=O)O)c2)C1c1ccc([N+](=O)[O-])cc1)c1cccc(OC(F)F)c1 (centres unmarked) [Compound 19, 5-(3-(3-(Difluoromethoxy)benzoyl)-4-hydroxy-2-(4-nitrophenyl)-5-oxo-2,5-dihydro-1H-pyrrol-1-yl)-2-hydroxybenzoic Acid] | abolished activity | abolished activity | – |
| O=C(O)c1cc(N2C(=O)C(O)=C(c3ccccc3)C2c2ccc([N+](=O)[O-])cc2)ccc1O (single isomer, unassigned; (+)) [(+)-28, 2-Hydroxy-5-(3-hydroxy-5-(4-nitrophenyl)-2-oxo-4-phenyl-2,5-dihydro-1H-pyrrol-1-yl) benzoic Acid] | – | no 14-3-3/ERα PPI stabilization activity | – |
| Nc1ccc(C2C(C(=O)c3ccccc3)=C(O)C(=O)N2c2ccc(O)c(C(=O)O)c2)cc1 (centres unmarked) [Compound 17, 5-(2-(4-Aminophenyl)-3-benzoyl-4-hydroxy-5-oxo-2,5-dihydro-1H-pyrrol-1-yl)-2-hydroxybenzoic Acid] | loss of measurable activity | loss of measurable activity | – |
| O=C(C1=C(O)C(=O)N(c2ccc(O)c(C(=O)O)c2)C1c1ccc([N+](=O)[O-])cc1)c1ccccc1 (centres unmarked) [Compound 1, 5-(3-Benzoyl-4-hydroxy-2-(4-nitrophenyl)-5-oxo-2,5-dihydro-1H-pyrrol-1-yl)-2-hydroxybenzoic Acid] | – | – | decrease in potency for 14-3-3/GR compared to 14-3-3/ERα ([1]; from EC1.2 values): approximately 2 fold; permeability classification [2]: low permeability |
| O=C(C1=C(O)C(=O)N(c2ccc(O)cc2)C1c1ccc([N+](=O)[O-])cc1)c1ccccc1 (centres unmarked) [Compound 22, 4-Benzoyl-3-hydroxy-1-(4-hydroxyphenyl)-5-(4-nitrophenyl)-1,5-dihydro-2H-pyrrol-2-one] | only marginal activity | – | permeability classification [2]: medium permeability; increase of permeability vs 1 [2]: 3 fold |
| C=CC(C)(C)OC[C@H]1O[C@H](O[C@@H]2C3=C([C@H](C)COC(C)=O)C[C@H](O)[C@]3(C)/C=C3/[C@@H](COC)CC[C@H]3[C@@H](C)[C@H]2O)[C@H](O)[C@@H](O)[C@@H]1O [FC-A, Fusicoccin A, reference compound] | does not stabilize | – | effect on the interaction between GR_pT524 and 14-3-3ζ (SPR) [4]: does not stabilize |
| O=C(C1=C(O)C(=O)N(c2ccc(O)c(C(=O)O)c2)C1c1ccccc1)c1ccccc1 (centres unmarked) [Compound 21, 5-(3-Benzoyl-4-hydroxy-5-oxo-2-phenyl-2,5-dihydro-1H-pyrrol-1-yl)-2-hydroxybenzoic Acid] | loss of measurable activity | loss of measurable activity | – |
| O=C(O)c1cc(N2C(=O)C(O)=C(c3ccccc3)C2c2ccc([N+](=O)[O-])cc2)ccc1O (centres unmarked) [Compound 28, 2-Hydroxy-5-(3-hydroxy-5-(4-nitrophenyl)-2-oxo-4-phenyl-2,5-dihydro-1H-pyrrol-1-yl) benzoic Acid] | – | inactive | – |
